Key:
[1] = molecular target: T1, Amine oxidase [flavin-containing] A (Homo sapiens, UniProt P21397); test: DRUGMATRIX: Monoamine Oxidase MAO-A enzyme inhibition (substrate: Kynuramine); design: species or system BTI-TN-5B1-4; details: Not Active = under 50% inhibition at 10 µM
T1 sequence (P21397 whole entry): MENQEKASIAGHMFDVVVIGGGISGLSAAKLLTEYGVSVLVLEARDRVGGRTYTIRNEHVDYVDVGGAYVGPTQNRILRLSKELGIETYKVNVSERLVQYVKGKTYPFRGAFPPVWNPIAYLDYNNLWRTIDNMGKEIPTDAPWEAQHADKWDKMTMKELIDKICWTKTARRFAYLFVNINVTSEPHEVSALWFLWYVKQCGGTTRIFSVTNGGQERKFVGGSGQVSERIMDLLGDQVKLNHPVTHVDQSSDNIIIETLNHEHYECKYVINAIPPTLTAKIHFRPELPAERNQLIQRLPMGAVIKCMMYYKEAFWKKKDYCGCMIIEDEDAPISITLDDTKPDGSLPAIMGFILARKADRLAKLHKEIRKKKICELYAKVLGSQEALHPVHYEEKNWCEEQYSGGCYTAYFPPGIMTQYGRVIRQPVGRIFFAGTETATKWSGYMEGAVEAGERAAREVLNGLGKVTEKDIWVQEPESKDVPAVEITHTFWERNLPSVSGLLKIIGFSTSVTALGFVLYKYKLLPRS

Substance-K receptor = molecular target: T2, Substance-K receptor (Homo sapiens, UniProt P21452); type: cell membranes, CHO, Membrane; details: cho; further: in other assays of this panel Not Active means under 50% inhibition at 10 µM
T2 sequence (P21452 whole entry): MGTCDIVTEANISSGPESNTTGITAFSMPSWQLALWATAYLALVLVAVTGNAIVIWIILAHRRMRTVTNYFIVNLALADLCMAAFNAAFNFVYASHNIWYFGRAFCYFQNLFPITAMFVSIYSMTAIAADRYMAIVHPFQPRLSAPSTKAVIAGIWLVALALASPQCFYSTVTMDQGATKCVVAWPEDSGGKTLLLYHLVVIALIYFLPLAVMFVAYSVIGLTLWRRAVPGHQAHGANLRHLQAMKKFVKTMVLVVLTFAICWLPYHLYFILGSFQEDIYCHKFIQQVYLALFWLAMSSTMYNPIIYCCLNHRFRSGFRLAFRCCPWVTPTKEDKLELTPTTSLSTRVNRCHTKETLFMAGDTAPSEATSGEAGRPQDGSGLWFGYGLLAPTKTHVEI

Cytochrome P450 2E1 = Cytochrome P450 2E1 (Homo sapiens, UniProt P05181); details: bti-tn-5b1-4; further: in other assays of this panel Not Active means under 50% inhibition at 10 µM
Sequence of Cytochrome P450 2E1 (P05181 whole entry): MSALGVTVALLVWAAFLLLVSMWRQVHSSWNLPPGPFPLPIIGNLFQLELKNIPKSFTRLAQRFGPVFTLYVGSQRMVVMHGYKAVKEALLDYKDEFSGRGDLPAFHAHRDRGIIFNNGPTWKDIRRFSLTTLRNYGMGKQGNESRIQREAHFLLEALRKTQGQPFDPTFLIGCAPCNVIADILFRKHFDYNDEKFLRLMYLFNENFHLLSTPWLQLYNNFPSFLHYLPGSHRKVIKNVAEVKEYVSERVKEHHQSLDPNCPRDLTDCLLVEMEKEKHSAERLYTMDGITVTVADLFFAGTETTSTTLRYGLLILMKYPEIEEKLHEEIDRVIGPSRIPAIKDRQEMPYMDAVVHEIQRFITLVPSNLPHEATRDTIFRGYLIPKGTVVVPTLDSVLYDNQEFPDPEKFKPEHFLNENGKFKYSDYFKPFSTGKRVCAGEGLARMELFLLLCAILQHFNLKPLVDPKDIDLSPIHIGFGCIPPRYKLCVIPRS

[2] = DRUGMATRIX: Phosphodiesterase PDE4 enzyme inhibition (substrate: [3H]cAMP + cAMP); details: u-937; Not Active = under 50% inhibition at 10 µM
[3] = DRUGMATRIX: Calcium Channel Type L, Dihydropyridine radioligand binding (ligand: [3H] Nitrendipine); type: cell membranes, Rattus norvegicus, Wistar, Cerebral cortex, Membrane; details: Not Active = under 50% inhibition at 10 µM
Cannabinoid receptor 1 = Cannabinoid receptor 1 (Homo sapiens, UniProt P21554); type: cell membranes, Chem-1, Membrane; details: chem-1; further: in other assays of this panel Not Active means under 50% inhibition at 10 µM
Sequence of Cannabinoid receptor 1 (P21554 whole entry): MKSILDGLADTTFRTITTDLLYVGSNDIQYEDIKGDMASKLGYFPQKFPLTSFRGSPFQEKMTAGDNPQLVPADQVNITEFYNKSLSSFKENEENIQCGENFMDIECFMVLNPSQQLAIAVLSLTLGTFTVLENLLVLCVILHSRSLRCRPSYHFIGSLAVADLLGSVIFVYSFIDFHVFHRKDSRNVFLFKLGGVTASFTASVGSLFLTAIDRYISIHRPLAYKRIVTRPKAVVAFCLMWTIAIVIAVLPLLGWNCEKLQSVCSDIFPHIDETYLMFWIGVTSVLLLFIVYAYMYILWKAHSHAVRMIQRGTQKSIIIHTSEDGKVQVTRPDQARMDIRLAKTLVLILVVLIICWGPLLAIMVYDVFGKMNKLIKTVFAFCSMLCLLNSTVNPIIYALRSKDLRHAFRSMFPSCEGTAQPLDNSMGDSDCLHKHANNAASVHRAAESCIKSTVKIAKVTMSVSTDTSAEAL

| Molecule | IC50 ([1]; bti-tn-5b1-4) | IC50 (Substance-K receptor) | IC50 (Cytochrome P450 2E1) | Ki (Cytochrome P450 2E1) | IC50 [2] | Ki [2] | IC50 [3] | Ki [3] | IC50 (Cannabinoid receptor 1) | Ki ([1]; bti-tn-5b1-4) | Ki (Substance-K receptor) | Ki (Cannabinoid receptor 1) | IC50 ([1]; read-out: IC50) [µM] |
| --- | --- | --- | --- | --- | --- | --- | --- | --- | --- | --- | --- | --- | --- |
| Cc1nnc2n1-c1ccc(Cl)cc1C(c1ccccc1)=NC2 [ALPRAZOLAM] | Not Active | Not Active | Not Active | Not Active | Not Active | Not Active | Not Active | Not Active | Not Active |  |  |  |  |
| COC(=O)CCc1ccc(OCC(O)CNC(C)C)cc1 (stereo not given) [ESMOLOL] | Not Active | Not Active | Not Active | Not Active | Not Active | Not Active | Not Active | Not Active | Not Active |  |  |  |  |
| COc1ccc2cc3[n+](cc2c1OC)CCc1cc2c(cc1-3)OCO2.[Cl-] [BERBERINE CHLORIDE] | Not Active | Not Active | Not Active | Not Active | Not Active | Not Active | Not Active | Not Active | Not Active |  |  |  |  |
| NC(=O)C[S+]([O-])C(c1ccccc1)c1ccccc1 (stereo not given) [MODAFINIL] | Not Active | Not Active | Not Active | Not Active | Not Active | Not Active | Not Active | Not Active | Not Active |  |  |  |  |
| CC(C)=CCC/C(C)=C/CO [GERANIOL] | Not Active | Not Active |  |  | Not Active | Not Active | Not Active | Not Active | Not Active |  |  |  |  |
| NCCCC(O)(P(=O)(O)O)P(=O)(O)O [ALENDRONIC ACID] | Not Active | Not Active | Not Active | Not Active | Not Active | Not Active | Not Active | Not Active | Not Active |  |  |  |  |
| C[C@@H]1CC[C@@]2(OC1)O[C@H]1[C@@H](O)[C@H]3[C@@H]4CC[C@H]5C[C@@H](O[C@@H]6O[C@H](CO)[C@H](O[C@@H]7O[C@H](CO)C(O)[C@H](O[C@@H]8OC[C@@H](O)[C@H](O)[C@H]8O)[C@H]7O[C@@H]7O[C@H](CO)[C@H](O)[C@H](O[C@@H]8O[C@H](CO)[C@@H](O)[C@H](O)[C@H]8O)[C@H]7O)[C@H](O)[C@H]6O)[C@H](O)C[C@]5(C)[C@H]4CC[C@]3(C)[C@H]1[C@@H]2C (stereo not given in full) [DIGITONIN] | Not Active | Not Active | Not Active | Not Active | Not Active | Not Active | Not Active | Not Active | Not Active |  |  |  |  |
| O=C1CN=C(c2ccccc2Cl)c2cc([N+](=O)[O-])ccc2N1 [CLONAZEPAM] | Not Active | Not Active | Not Active | Not Active | Not Active | Not Active | Not Active | Not Active | Not Active |  |  |  |  |
| AURANOFIN | Not Active | Not Active | Not Active | Not Active | Not Active | Not Active | Not Active | Not Active | Not Active | Not Active | Not Active | Not Active |  |
| COC(=O)Nc1nc2ccc(C(=O)c3cccs3)cc2[nH]1 [NOCODAZOLE] |  | Not Active | Not Active | Not Active | Not Active | Not Active | Not Active | Not Active | Not Active |  |  |  | 24.1 |
| C[C@H]1O[C@@H](n2cc(F)c(=O)[nH]c2=O)[C@H](O)[C@@H]1O [DOXIFLURIDINE] | Not Active | Not Active | Not Active | Not Active | Not Active | Not Active | Not Active | Not Active | Not Active |  |  |  |  |
| CC(C(=O)O)c1ccc2oc(-c3ccc(Cl)cc3)nc2c1 (stereo not given) [BENOXAPROFEN] | Not Active | Not Active | Not Active | Not Active | Not Active | Not Active | Not Active | Not Active | Not Active |  |  |  |  |
| GADOPENTETATE DIMEGLUMINE | Not Active | Not Active | Not Active | Not Active | Not Active | Not Active | Not Active | Not Active | Not Active | Not Active | Not Active | Not Active |  |
| Nc1ccc2c3c(cccc13)C(=O)NC2=O | Not Active | Not Active | Not Active | Not Active | Not Active | Not Active | Not Active | Not Active | Not Active |  |  |  |  |
| C[n+]1ccccc1/C=N/O.[Cl-] [PRALIDOXIME CHLORIDE] | Not Active | Not Active | Not Active | Not Active | Not Active | Not Active | Not Active | Not Active | Not Active |  |  |  |  |
| NNc1nncc2ccccc12 [HYDRALAZINE] | Not Active | Not Active | Not Active | Not Active | Not Active | Not Active | Not Active | Not Active | Not Active |  |  |  |  |
| O=c1cnn([C@@H]2O[C@H](CO)[C@@H](O)[C@H]2O)c(=O)[nH]1 [6-AZAURIDINE] | Not Active | Not Active | Not Active | Not Active | Not Active | Not Active | Not Active | Not Active | Not Active |  |  |  |  |
| CC(=O)[C@@]1(O)CC[C@H]2[C@@H]3CCC4=CC(=O)CC[C@]4(C)[C@H]3CC[C@@]21C [HYDROXYPROGESTERONE] | Not Active | Not Active |  |  | Not Active | Not Active | Not Active | Not Active | Not Active |  |  |  |  |
| CC(C)c1cccc(C(C)C)c1O [PROPOFOL] | Not Active | Not Active |  |  | Not Active | Not Active | Not Active | Not Active | Not Active |  |  |  |  |
| CC(C)NCC(O)COc1cccc2[nH]ccc12 (stereo not given) [PINDOLOL] | Not Active | Not Active |  |  | Not Active | Not Active | Not Active | Not Active | Not Active |  |  |  |  |
| COc1cc([C@@H]2c3cc4c(cc3[C@@H](O[C@@H]3O[C@@H]5CO[C@@H](C)O[C@H]5[C@H](O)[C@H]3O)[C@H]3COC(=O)[C@H]23)OCO4)cc(OC)c1O [ETOPOSIDE] | Not Active | Not Active |  |  | Not Active | Not Active | Not Active | Not Active | Not Active |  |  |  |  |
| COc1ccc2c3c1O[C@H]1C[C@@H](O)C=C[C@@]31CCN(C)C2 [GALANTAMINE] | Not Active | Not Active |  |  | Not Active | Not Active | Not Active | Not Active | Not Active |  |  |  |  |
| C#C[C@]1(OC(C)=O)CC[C@H]2[C@@H]3CCC4=C[C@@H](OC(C)=O)CC[C@@H]4[C@H]3CC[C@@]21C [ETHYNODIOL DIACETATE] |  | Not Active | Not Active | Not Active | Not Active | Not Active | Not Active | Not Active | Not Active |  |  |  |  |

— ChEMBL document CHEMBL1909046, “DrugMatrix in vitro pharmacology data”
